Assay results: publication PMC6748984, “The coral Platygyra verweyi exhibits local adaptation to long-term thermal stress through host-specific physiological and enzymatic response” (Scientific Reports, 2019)
Where two headings read alike, the source gives them in different places.

Legend:
[1] = test system: T1, MDH (malate dehydrogenase, major isozyme, DEAE peak II) of P. verweyi from WLT; assay: NADH oxidation, absorbance at […] nm; assay type: biochemical, Platygyra verweyi; details: 100 mM phosphate pH 7.0, about 27 °C, read-out: apparent Km
T1 construct: gene MDH1; native, purified from host tissue extract of symbiotic coral; about 38 kDa by SDS-PAGE, native about 64 kDa, dimer

[2] = test system: T2, MDH (malate dehydrogenase, major isozyme, DEAE peak II) of P. verweyi from NPP-OL; assay: NADH oxidation, absorbance at […] nm; assay type: biochemical, Platygyra verweyi; details: 100 mM phosphate pH 7.0, about 27 °C, read-out: apparent Km
T2 construct: gene MDH1; native, purified from host tissue extract of symbiotic coral; about 39 kDa by SDS-PAGE, native about 67 kDa, dimer

[3] = NADH varied 38-95 µM, OAA fixed (1 mM [sic])
[4] = OAA varied 14-29 µM, NADH fixed (3 mM as printed)

Compound	Km [1, 3] [µM]	Km [2, 3] [µM]	Km [1, 4] [µM]	Km [2, 4] [µM]
NC(=O)C1=CN([C@@H]2O[C@H](COP(=O)(O)OP(=O)(O)OC[C@H]3O[C@@H](n4cnc5c(N)ncnc54)[C@H](O)[C@@H]3O)[C@@H](O)[C@H]2O)C=CC1 [NADH]	12.7	7.5		
O=C(O)CC(=O)C(=O)O [oxaloacetate]			5.7	9.4
